Tests used:
Type in all cases: cell-based, human
[1] = system: K562 cells; assay: Megakaryocyte differentiation, CD41/CD61 expression over time by FACS, K562 cells; settings: 40 μg/ml, 4 days
Method: K562 cells were aliquoted at a density of 2×10^5 cells per well in 6-well plates and treated with 40 μg/ml of (R)-NALPCE, followed by incubation for 4 days. After centrifugation (1,000 rpm, 5 min), the cell pellets thus obtained were washed three times with 0.01% bovine serum albumin (BSA) in PBS. Incubation with 10 μl of anti-CD41-fluorescein-5-isothiocyanate (FITC) (Dako Chemicals, Carpenteria, Calif.) or 20 μl of anti-CD61-phycoerythrin (PE) (BD Pharmingen) in 200 μl of 0.01% bovine serum albumin (BSA)-PBS was conducted at 4° C. for 50 min with spinning to realize homogeneous fluorescent staining. Following centrifugation (1,000 rpm, 10 min), the cell pellets thus obtained were rinsed three times with 0.01% bovine serum albumin (BSA) in PBS. Fluorescence was analyzed on a fluorescence-activated cell sorter (FACS) (Aria) using a Cellquest program.

[2] = system: K562 cells; assay: Differentiation inductivity, lineage receptor expression by FACS, K562 cells; settings: K562 cells, 40 μg/ml (R)-NALPCE or 30 nM PMA, 4 days
Method: K562 cells were aliquoted at a density of 2×10^5 per well in 6-well plates and treated with 40 μg/ml of (R)-NALPCE or 30 nM of PMA (12-phorbol myristate-13-acetate, Calbiochem.), followed by incubation for 4 days. After centrifugation (1,000 rpm, 10 min), the cell pellets thus obtained were washed three times with 0.01% bovine serum albumin (BSA) in PBS. The cells were incubated with 10 μl of anti-CD41-fluorescein-5-isothiocyanate (FITC) (Dako Chemicals, Carpenteria, Calif.), 20 μl of anti-CD16-Cy-Chrome (Cy) (BD Pharmingen), 10 μl of anti-glycophorin ACD235a-phycoerythrin (PE) (Dako Chemicals, Carpenteria, Calif.), and 20 μl of anti-CD14-allophycocyanin (APC) (BD Pharmingen) in 200 μl of 0.01% bovine serum albumin (BSA)-PBS at 4° C. for 50 min while spinning to realize homogeneous fluorescent staining. After centrifugation (1,000 rpm, 10 min), the cell pellets thus obtained were washed three times with 0.01% bovine serum albumin (BSA) in PBS. Fluorescence was analyzed on a fluorescence-activated cell sorter (FACS) (Aria) using a Cellquest program.

[3] = system: K562 cells; assay: Transmission electron microscopy of cells differentiated from K562 cells on OP9 cells; settings: 40 μg/ml, 5 days
Method: OP9 cells were aliquoted at a density of 1×10^5 cells in 6-well plates and incubated for 24 hrs. After the OP9 cells were uniformly attached onto the bottom of the plates, K562 cells were layered at a density of 1×10^5 cells over the OP9 cells in 6-well plates. The cells were treated with 40 μg/ml of (R)-NALPCE before incubation for 5 days. Following centrifugation (1,000 rpm, 5 min), the cells were pre-fixed with 2.5% glutaraldehyde in PBS (pH 7.4) for 24 hrs. Thereafter, cell pellets obtained by centrifugation (4,000 rpm, 10 min) were fixed for 1 hr with 1% osmium tetraoxide in 0.1 M PBS (pH 7.4). After being washed with PBS, the post-fixed samples were dehydrated with 60, 70, 80, 90, and 95% ethanol for 10 min each and then twice with 100% ethanol for 10 min each, and embedded in epoxy resin. The embedded samples were sectioned into slices 1 μm thick using an ultramicrotome diamond knife (Richert-Jung, U.S.A.) and stained with 1% toluidine blue for optical microscopy. Separately, ultra-thin sections ranging in thickness from 60 to 70 nm were prepared and stained sequentially with 1-2% uranyl acetate and 1% lead citrate for transmission electron microscopy, in which electrons were accelerated at 75 kV using H-600 TEM (Hitachi, Japan).

[4] = system: K562 cells; assay: MTT cytotoxicity assay of (R)-NALPCE; settings: 10 to 50 μg/ml, 48 hrs incubation
Method: In order to examine whether the compound (R)-NALPCE is toxic to cells, MTT (3-[4,5-dimethylthiazol-2-yl]-2,5-diphenyltetrazolium bromide) assay was conducted in K562 cells which are the leukemia cells derived from human bone marrow. These cells were aliquoted at a density of 4×10^4 cells per well in 96-well plates and treated with various concentrations of (R)-NALPCE, followed by incubation for 48 hrs. Thereafter, an MTT solution was added in an amount of 20 μl to each well. Incubation at 37° C. for 4 hrs, treatment with a 20% sodium dodecyl sulfate (SDS) solution (in an equivolume mixture of N,N-dimethylformamide and distilled water), and incubation at 37° C. for 16 hrs were sequentially conducted in that order before the absorbance at 570 nm was read using an ELISA reader (Bio-Tek Instrument, Winiiski, Vt.). The assay was conducted in triplicate.

[5] = system: HEL cells; assay: Cell differentiation of HEL cells, optical microscopy; settings: 5 μg/ml (R)-NALPCE, 10 nmole PMA or 50 ng/ml TPO, 5 days
Method: HEL cells were aliquoted at a density of 3×10^5 cells per well in 6-well plates and treated with 5 μg/ml of (R)-NALPCE, 10 nmole of PMA, or 50 ng/ml of TPO, followed by incubation in a day-dependent manner for 5 days. They were observed under an optical microscope with 200× magnification.

[6] = system: HEL cells; assay: Differentiation inductivity, lineage receptor expression by FACS, HEL cells; settings: 5 μg/ml (R)-NALPCE 5 days or 10 nM PMA 3 days
Method: HEL cells were aliquoted at a density of 3×10^5 cells per well in 6-well plates and treated separately with 5 μg/ml of (R)-NALPCE and 10 nM of 12-phorbol myristate-13-acetate (PMA) (Calbiochem.), followed by incubation for 5 and 3 days, respectively. After centrifugation (1,000 rpm, 10 min), cell pellets thus obtained were washed three times with 0.01% bovine serum albumin (BSA) in PBS and incubated with 10 μl of anti-CD61-fluorescein-5-isothiocyanate (FITC) (Dako Chemicals, Carpenteria, Calif.), 20 μl of anti-CD16-Cy-Chrome (Cy) (BD Pharmingen), 10 μl of anti-glycophorin ACD235a-phycoerythrin (PE) (Dako Chemicals, Carpenteria, Calif.), and 20 μl of anti-CD14-allophycocyanin (APC) (BD Pharmingen) in 200 μl of 0.01% bovine serum albumin (BSA)-PBS at 4° C. for 50 min with spinning so as to achieve homogenous fluorescent staining over the cells. After centrifugation (1,000 rpm, 10 min), the cell pellets thus obtained were washed three times with 0.01% bovine serum albumin (BSA) in PBS. Fluorescence was analyzed on a fluorescence-activated cell sorter (FACS) (Aria) using a Cellquest program.

Q: With CCCCCCCCCCCCCCCCCC(=O)NC(COP(=O)([O-])OCC[N+](C)(C)C)C(=O)OC [(R)-NALPCE, N-steroyl-O-phosphocholine-D-serine methyl ester] as the compound, how does the “CD41 and CD61 expression rate” value [1] read?
A: increase in expression rate in a time-dependent manner

Q: What about the “expression of CD41, CD16, glycophorin A and CD14 receptors” value [2] of the same compound?
A: CD41 and CD16 were specifically expressed

Q: What about the “maturity of megakaryocytes (TEM)” value [3] of the same compound?
A: have demarcation channels within which platelets are held

Q: And the “morphology of released platelets (TEM)” value [3]?
A: morphology similar to that of the pre-existing blood platelets

Q: And the “polymorphonuclear megakaryocytes having at least two nuclei among the differentiated cells” value ([3]; TEM)?
A: ≥ 40%

Q: And the “cytotoxicity on K562 cells (MTT)” value [4]?
A: does not exert cytotoxicity

Q: What about the “cell morphology (optical microscope)” value [5] of the same compound?
A: increase in size in a day-dependent manner

Q: And the “expression of CD61, CD235a, CD16 and CD14 receptors” value [6]?
A: CD61 and CD16 were specifically expressed

From patent publication US20080268535A1, “Method for Inducing the Differentiation of Human Myelogenous Leukemia Cells Into Megakarocytes or Thrombocytes” (EWHA University - Industry Collaboration Foundation, priority 2005, published 2008)
